Data published in patent US7820624B2, “Peptide ligands” (ICH Productions Limited, priority 2003, dated 2010).
“Also recorded” adds a separate entry of the source.

Key:
[1] = Titration of phage clone binding to blocked plastic (control)
Experimental: (§1) The dendritic cells were spun down at 2000 rpm, for 5 min at 4° C., and resuspended in the phage solution, allowing the phage to bind for 1 hour on ice with occasional mixing. The cells were then washed in PBS-Tween 20 (0.05%) three times before eluting phage with 166 μl TBS pH5.5. for 10 min on ice. The eluate was neutralised with […] Tris-HCl pH 8, the cells were spun down, and the supernatant removed to be stored as eluate. The cell pellet was resuspended in 200 μl of cell lysis buffer (30 mM Tris-HCl, 1 mM EDTA pH 8.0) for 1 hour on ice, with shaking. The cell debris was removed by spinning at 5000 rpm for 5 min and the supernatant recovered. The phage in the eluate and the cell lysate were titred by measuring plaque forming units (pfu) in E. coli ER2738 as described in the NEB C7C technical bulletin.
(§2) The titration of phage clone binding was carried out using human and mouse dendritic cells, with binding to plastic as a control. The human cells were obtained from donors as stated below.

[2] = system: mouse dendritic cells; assay: Titration of phage clone binding to mouse dendritic cells; conditions: 2×10^11 phage
Experimental: as §1, §2

[3] = system: human monocyte-derived immature dendritic cells; assay: Titration of phage clone binding to human dendritic cells; conditions: 2×10^11 phage on 5×10^4 cells, 1 hour on ice
Experimental: Phage were recovered and titred from each round of selection as follows. 2×10^11 Blocked phage were added to 5×10^4 blocked monocyte-derived immature dendritic cells for 1 hour on ice before washing cells three times with 0.05% Tween20-PBS, eluting phage with TBS pH5.5, and lysing cells to harvest the phage remaining bound. The numbers of phage harvested by cell lysis were calculated as plaque forming units (pfu). […] Sequencing of the bound phage shown in FIG. 1 identified the peptides as APSNSTA [SEQ. ID. NO.:15], QLLTGAS [SEQ. ID. NO.:30], TARDYRL [SEQ. ID. NO.:31], FQSQYQK [SEQ. ID. NO.:26], PLMPSLS [SEQ. ID. NO.:24], FPRAPHH [SEQ. ID. NO.:32], MASISMK [SEQ. ID. NO.:27], DWWHTSA [SEQ. ID. NO.:28], SHVKLNS [SEQ. ID. NO.:29], and SPALKTV [SEQ. ID. NO.:16].
as §1, §2

[4] = system: human peripheral blood monocytes; assay: LID transfection of monocytes, EGFP by FACS and cell death; type: cell-based; conditions: for Percentages of cells transfected (ranking): FIG. 7a
Experimental: Lipopolyplex (LID) transfection complexes comprising lipid (L), peptide (in the form of a peptide derivative as described above) (I) and DNA (D) were prepared. The lipid component was Lipofectin or Lipofectamine 2000 (Invitrogen Ltd, Paisley, UK), the peptide component was a synthesized peptide A to F, 6 or 6J derivative, as described in Table 7 above, and the DNA was the plasmid pEGFP-N1 (Clontech, BD Biosciences, Palo Alto, Calif.)
component (Lipofectin or Lipofectamine 2000) was maintained at a constant proportion, by weight, relative to DNA of 0.75:1. Prior to making transfection complexes, in method A the lipid component was diluted to a concentration of 15 μg per ml, the peptide was prepared at 0.1 mg/ml and the DNA (plasmid pEGFP-N1, BD Biosciences, Cowley, UK, prepared using EndoFree plasmid kit, Qiagen Ltd, Crawley, UK) was at 10 μg per ml. All dilutions were performed with OptiMEM reduced serum tissue culture medium (Life Technologies Ltd, Paisley, UK). In method B prior to making transfection complexes the lipid component was diluted to a concentration of 30 μg per ml, the peptide was prepared at 0.1 mg/ml and the DNA (plasmid pEGFP-N1, BD Biosciences, Cowley, UK, prepared using EndoFree plasmid kit, Qiagen Ltd, Crawley, UK) was at […]. All dilutions were performed in serum-free RPMI.
Transfection complexes were made by mixing the components in the order 1) lipid (50 μl) then 2) peptide (70 μl) and finally 3) DNA (50 μl), then diluting with OptiMEM or serum free RPMI, as appropriate, to a concentration relative to the DNA component of 2 μg DNA per […] (OptiMEM) or 500 μl (RPMI).
For transfection of monocytes, peripheral blood monocytes were prepared using Lymphoprep centrifugation and CD14 bead selection as described in the method for preparation of monocyte derived dendritic cells in Example 1(v) above. These cells were then transfected as described as described for dendritic cells except that transfection of the monocytes (and also of day 3 or day 4 immature dendritic cells) was carried out in solution.

[5] = system: human monocyte-derived immature dendritic cells; assay: Whole cell flow cytometry (FACS) of phage clone binding; conditions: day 4 cells, several donors; versus phage clone with no insert
Experimental: 5×10^4 Dendritic cells and 2×10^11 of an individual purified phage clone were each blocked at 4° C. for 30 mins in 1 ml MBSA (2% Marvel, 5% BSA in PBS), with mixing on a turntable. The dendritic cells were spun down at 2000 rpm, a gentle centrifugation to pellet cells without lysing them, for 5 min at 4° C., and the pellet resuspended in the blocked phage solution. The mixture was held on ice for 30 min to allow the phage to bind, before spinning down the cells, removing the supernatant and washing the cells with 1 ml 1% BSA, 0.05% Tween20-PBS. The cells were spun again, the supernatant removed, and the cells fixed in 1 ml 1% paraformaldehyde for 30 min on ice. […] The cells were incubated with the antibody on ice for 30 min before spinning down, washing twice in 0.05% Tween20, 1% BSA PBS, resuspending in […] and measuring the percentage cells positive for FITC by FACS analysis.
Alternatively, 5×10^4 dendritic cells were mixed with 2×10^11 of individual phage clones as described for panning of the phage library. The mixture of phage and DC suspensions was kept on ice for 30 min before cells were centrifuged to remove the supernatant and washed with 1 ml 1% BSA, 0.05% Tween 20-PBS. The cells were again pelleted by centrifugation, then fixed for flow cytometry analysis by resuspending in 1 ml of 1% paraformaldehyde for 30 min on ice. […] The cells were incubated with the antibody on ice for 30 min then pelleted by centrifugation, washed twice in 0.05% Tween 20, 1% BSA PBS and resuspended in 200 μl PBS. The percentage of FITC-positive cells was determined by flow cytometry using a Epics XL flow cytometer (Beckman Coulter, High Wycombe, UK.).

Substance	Phage titre (pfu), plastic [1] [pfu ×10^3]	Phage titre (pfu), mouse DCs [2] [pfu ×10^3]	Phage harvested by cell lysis (pfu), human donor S [3] [pfu ×10^3]	Phage harvested by cell lysis (pfu), human donor one [3] [pfu ×10^3]	Phage harvested by cell lysis (pfu), human donor two [3] [pfu ×10^3]	Percentages of cells transfected (ranking) [4]	Percentage of cells positive for bound phage (FITC) by FACS [5]	Percent positive for EGFP ([4]; combined with Lipofectin) [%]
APSNSTA (Synthetic peptide binding to dendritic cells)	480	480	6480	1920	460	highest percentages of cells transfected	binding to a higher percentage of cells than a phage clone bearing no insert; also recorded: bind to dendritic cells in highest amounts; also recorded: binding to dendritic cells in highest amounts	
SHVKLNS (Synthetic peptide binding to dendritic cells)	720	2120	7280	2620	1160	highest percentages of cells transfected	binding to a higher percentage of cells than a phage clone bearing no insert; also recorded: bind to dendritic cells in highest amounts; also recorded: binding to dendritic cells in highest amounts	6
